In patent US4765972A (priority 1986, dated 1988):

Columns and labels:
[1] = test system: P388 murine leukemic cells; test: Growth inhibition of exponentially growing P388 cells; format: cell-based; details: Mus musculus, P388, 72 h
Source text: Thus, NABV is ideal for probing intracellular Vinca alkaloid interactions because it retains the known biochemical and pharmacological properties of this class of drugs.

P388 leukemic cells = test: Ultrastructural alterations in P388 cells; format: cell-based, murine
[2] = test system: MCF-7 human breast tumor cells; test: Ultrastructural alterations in MCF-7 cells; format: cell-based
microtubule = test: In vitro microtubule assembly; format: biochemical; details: both drugs at similar concentrations
tubulin [3] = test: Tubulin aggregation; format: biochemical; details: both drugs at similar concentrations
tubulin [4] = test: Tubulin-dependent GTP hydrolysis; format: biochemical; details: both drugs at similar concentrations
[5] = test system: calf brain macromolecular components; test: Control irradiation of calf brain homogenate with ^3 H-vinblastine; format: binding; details: standard photolabelling conditions; 50 nM ^3 H-vinblastine
Method: The standard photolabelling mixture used contained 50 nM ^3 H-NABV (50.6 Ci/mmol), 4% dimethylsulfoxide, […] potassium phosphate buffer, pH 7.0, and 2 mg/ml of tissue homogenate or high speed pellet or supernatant fractions in a final volume of 0.05 ml in polyvinylchloride V-microtiter wells (Dynatech Labs, Inc., Alexandria, VA) in a 25° C. water bath. Photolabelling mixtures were incubated for 15 minutes at 25° C. before photolysis. Photoactivation was performed for 10-20 minutes with a UV light equipped with two 15 W self-filtering 302 nm lamps (Model xx-15, Ultra-Violet Products, Inc., San Gabriel, CA), placed 3.4 cm above the photolabelling mixture. […] In a control experiment, brain homogenate was irradiated in the presence of 50 nM ^3 H-vinblastine (10.7 Ci/mmol; Amersham Corp., Arlington Heights, IL). Photoactivated samples were immediately processed for SDS-PAGE or frozen at -70° C.
When homogenate was incubated with ^3 H-NABV in the absence of UV light for 30 minutes, no radioactivity was found in subsequent SDS-PAGE gel slices above the ambient background level, except for excess 3H-NABV which migrated near the tracking dye front. Similar results were obtained after photoactivating ^3 H-NABV in the absence of brain homogenate which was then added prior to performing SDS-PAGE and gel slice analysis.

Compound	IC50 [1] [nM]	ultrastructural alterations (microtubular paracrystals, mitotic arrest, multinucleated cells) (P388 leukemic cells)	ultrastructural alterations (microtubular paracrystals, mitotic arrest, multinucleated cells) [2]	effect on in vitro microtubule assembly (microtubule)	effect on tubulin aggregation (tubulin [3])	effect on tubulin-dependent GTP hydrolysis (tubulin [4])	radiolabel incorporation into calf brain macromolecular components [5]
CCC1(O)CC2CN(CCc3c([nH]c4ccccc34)C(C(=O)OC)(c3cc4c(cc3OC)N(C)C3C(O)(C(=O)NCCNC(=O)c5ccc(N=[N+]=[N-])cc5)C(O)C5(CC)C=CCN6CCC43C65)C2)C1 (stereo not drawn) [NABV, N-(p-azidobenzoyl)-N'-beta-aminoethylvindesine]	1.1	resembles those caused by vinblastine	resembles those caused by vinblastine	inhibit in vitro microtubule assembly	induce tubulin aggregation	inhibit tubulin-dependent GTP hydrolysis	
CC[C@]1(O)C[C@@H]2CN(CCc3c([nH]c4ccccc34)[C@@](C(=O)OC)(c3cc4c(cc3OC)N(C)[C@H]3[C@@](O)(C(=O)OC)[C@H](OC(C)=O)[C@]5(CC)C=CCN6CC[C@]43[C@@H]65)C2)C1 [^3 H-vinblastine]							no radiolabel incorporation
